Assay: in vivo
Conditions: rat

Which bioavailability does the source give for `Cc1c(NS(C)(=O)=O)cccc1N(Cc1ccccc1)Cc1ccc(Oc2cccc(OCCCC(=O)NCCCC(=O)O)c2)cc1` here?
Its bioavailability is 12%.

— ChEMBL document CHEMBL1137096, “Optimization and metabolic stabilization of a class of nonsteroidal glucocorticoid modulators” (Bioorg Med Chem Lett, 2004)
